The text below walks through data of patent publication US11169138B2, “Nanopores with internal protein adaptors” (priority 2015, dated 2021).

“Also recorded” adds a separate entry of the source. Where two headings read alike, the source gives them in different places.

Assay [1] concerns the target SBD2 (Lactococcus lactis, UniProt Q9CES5). In words: Glutamine binding to SBD2 inside type I ClyA-AS nanopore. As for the experimental part: The interaction of SBD2 with glutamine was sampled using type I ClyA-AS nanopores at −100 mV. The addition of 72 nM of SBD2 induced a current blockade that fluctuated between two levels I (Ires %=63.6±0.3%, τ=256±5 ms, N=3) and level III (Ires %=61.0±0.2%, τ=145±13 ms, N=3). Protein blockades remained inside the nanopore for 3.9±0.7 s (mean±S.E., n=225). Rarely the current visited an additional ionic current level, Level II (Ires %=62.5±0.3%, τ=18±1 ms, n=856, N=3).
We studied ligand binding by stepwise addition of glutamine at concentrations ranging from 200 nM to 3 μM. […] Binding rates were determined from the lifetimes as described above. Upon linear fitting of the binding rate curve the glutamine binding rates from Level I and III were determined. […] The opening rate constant was determined by the intercept at zero koff=39.7 s^1.

Assay [2] addresses T1, AlkB-Fe^++ (E. coli AlkB demethylase) (Escherichia coli, UniProt P05050).
T1 construct: made in house; host or cells: E. cloni EXPRESS BL21(DE3) E. coli
T1 sequence (P05050 with tags, fused parts or gaps): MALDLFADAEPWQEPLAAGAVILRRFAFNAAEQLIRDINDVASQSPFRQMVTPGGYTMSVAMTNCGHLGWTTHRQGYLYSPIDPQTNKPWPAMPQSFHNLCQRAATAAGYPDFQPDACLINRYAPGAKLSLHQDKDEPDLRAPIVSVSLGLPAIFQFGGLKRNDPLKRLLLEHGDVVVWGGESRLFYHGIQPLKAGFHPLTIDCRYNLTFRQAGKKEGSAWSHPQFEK
In words: Ligand binding to AlkB-Fe++ confined inside ClyA-AS nanopore, single-channel ionic current recording. As for the experimental part:
(§1) The applied potential refers to the potential of the trans electrode. ClyA-AS nanopores were inserted into lipid bilayers from the cis compartment, which was connected to the ground electrode. The two compartments were separated by a 25 μm thick polytetrafluoroethylene film (Goodfellow Cambridge Limited) containing an orifice of ˜100 μm in diameter. The aperture was pretreated with ˜5 μl of 10% hexadecane in pentane and a bilayer was formed by the addition of ˜10 μL of 1,2-diphytanoyl-sn-glycero-3-phosphocholine (DPhPC) in pentane (10 mg/mL) to both electrophysiology chambers. Typically, the addition of 0.01-0.1 ng of oligomeric ClyA-AS to the cis compartment (0.5 mL) was sufficient to obtain a single channel. […] Electrical recordings were carried out in 150 mM NaCl, 15 mM Tris.HCl pH 8.0 (AlkB experiments) or 150 mM NaCl, 15 mM Tris.HCl pH 7.5 (DHFR experiments). The temperature of the recording chamber was maintained at 28° C. by water circulating through a metal case in direct contact with the bottom and sides of the chamber.
(§2) Electrical signals from planar bilayer recordings were amplified using an Axopatch 200B patch clamp amplifier (Axon Instruments) and digitized with a Digidata 1440 A/D converter (Axon Instruments). Data were recorded by using the Clampex 10.4 software (Molecular Devices) and the subsequent analysis was carried out with the Clampfit software (Molecular Devices). Electrical recordings were performed in 150 mM NaCl, 15 mM Tris.HCl pH 8.0 (AlkB) or pH 7.5 (DHFR) by applying a 2 kHz low-pass Bessel filter and a 10 kHz sampling rate. For further analysis traces were filtered digitally with a Bessel (8-pole) low-pass filter with a 50 Hz cut-off. Residual current values (IRES%) were calculated from blocked pore current values (IB) and open pore current values (IO) as IRES %=100*IB/IO. IB and IO were determined from Gaussian fits to all point current histograms (0.05 pA bin size) for at least 15 individual protein blockades. ΔIRES % values were calculated from IRES % using propagation of errors.
(§3) Current transitions from level 1 were analyzed with the “single-channel search” function in Clampfit. The detection threshold to collect the ligand-induced events for AlkB was set to 4 pA and events shorter than 10 ms were ignored. […] The resulting event dwell times (toff) and the time between events (ton) were binned together as cumulative distributions and fitted to a single exponential to retrieve the ligand-induced lifetimes (τoff) and the ligand-induced event frequencies (f=1/τon). The process of event collection was monitored manually. For AlkB, final values of τon and τoff were based on average values derived from at least 3 single channel experiments at each concentration. Each experiment analysed more than 8 AlkB blockades. At the low ligand concentrations (0.2 mM) about 100 ligand-binding events were measured. Otherwise more than 150 events were collected. […] Subsequently, the ton values were binned together as cumulative distributions and fitted to a single exponential fit to retrieve characteristic τon values. The values for koff represented in FIG. 2b and FIG. 4b were determined by taking the average±standard deviations of 1/toff of at least 3 single channel experiments. The values of the association rate constants (kon) were determined from the slope of the linear regression curves calculated from the dependency of the event frequencies (f=1/τon) on the ligand concentration (OriginLab, FIGS. 2b and 4b). Graphs were made with Origin (OriginLab Corporation) or Clampfit software (Molecular Devices).
9, 872-877; Bleijlevens, B. et al. (2012) Biochem. 2012, 51, 3334-3341].

In assay [3] the target is T2, DHFR (Escherichia coli, UniProt P0ABQ4, C152S/C85A).
T2 construct: Met-Ala-Ser-Ala (N); made in house; host or cells: E. cloni EXPRESS BL21(DE3) E. coli
T2 sequence (P0ABQ4 1-159 C85A/C152S): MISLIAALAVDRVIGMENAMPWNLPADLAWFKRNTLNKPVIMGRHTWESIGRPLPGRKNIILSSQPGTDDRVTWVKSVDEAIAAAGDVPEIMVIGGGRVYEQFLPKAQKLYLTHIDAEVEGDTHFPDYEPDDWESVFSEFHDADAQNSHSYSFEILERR
The assay is described as follows: Ligand effects on DHFR (untagged construct) blockades of ClyA-AS nanopore. Particulars: 20 μM NADPH cis after 400 nM MTX, −90 mV. It is filed as binding, E. coli.

The target in assay [4] is T3, DHFRtag:MTX (Escherichia coli, UniProt P0ABQ4, C152S/C85A).
T3 construct: Met-Ala-Ser-Ala (N); made in house; host or cells: E. cloni EXPRESS BL21(DE3) E. coli
T3 sequence (P0ABQ4 1-159 C85A/C152S): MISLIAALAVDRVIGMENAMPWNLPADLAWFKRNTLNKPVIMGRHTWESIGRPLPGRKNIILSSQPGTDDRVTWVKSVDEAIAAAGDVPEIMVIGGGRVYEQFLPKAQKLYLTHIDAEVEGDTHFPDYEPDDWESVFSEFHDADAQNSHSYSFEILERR
In words: Ligand binding to DHFRtag:MTX complex confined inside ClyA-AS nanopore, single-channel recording. Set-up: species or system E. coli. The method, then:
as §1, §2, §3

Assay [5] concerns Type I ClyA-AS nanopore. The assay is described as follows: Current blockades from capture of protein adaptors by Type I ClyA-AS nanopore. Also noted: species or system S. Typhi. The settings on record: ~4 nM cis, −60 mV. As for the experimental part: The applied potential refers to the potential of the trans electrode. ClyA-AS nanopores were inserted into lipid bilayers from the cis compartment, which was connected to the ground electrode. The two compartments were separated by a 25 μm thick polytetrafluoroethylene film (Goodfellow Cambridge Limited) containing an orifice of ˜100 μm in diameter. The aperture was pretreated with ˜5 μl of 10% hexadecane in pentane and a bilayer was formed by the addition of ˜10 μL of 1,2-diphytanoyl-sn-glycero-3-phosphocholine (DPhPC) in pentane (10 mg/mL) to both electrophysiology chambers. […]
as §2, with “Electrical recordings were performed in 150 mM NaCl, 15 mM Tris.HCl pH 8.0 (AlkB) or pH 7.5 (DHFR) by applying a 2 kHz low-pass Bessel filter and a 10 kHz sampling rate. For further analysis traces were filtered digitally with a Bessel (8-pole) low-pass filter with a 50 Hz cut-off.” left out

The term Kd denotes the concentration at which binding is half-saturated. Read a low Kd as tighter binding. A word on the kon: it is a measure of how fast the partners come together. `NC(=O)CC[C@H](N)C(=O)O` [glutamine]: binding in assay [1] was characterised by a dissociation constant (Kd) of 1270 ± 140 nM. Also, the on-rate constant (kon) in assay [1] (read-out: kon, binding from Level I) came out at 3.7e+07 M⁻¹ s⁻¹; in assay [1] (read-out: kon, binding from Level II (so in the source)), 3.8e+07 M⁻¹ s⁻¹. Also, the “koff (opening rate constant)” value in assay [1] (−100 mV, intercept at zero) is given as 39.7 s^1.
Usually koff stands for the first-order rate constant of dissociation. On to `O=C(O)CNC(=O)C(=O)O` [N-OG, N-oxalylglycine], for which the koff in assay [2] (pH 8, read-out: koff −60 mV) was 0.57 ± 0.1 s⁻¹. In addition, the association rate constant (kon) in assay [2] (pH 8, read-out: kon −60 mV) worked out at 1200 ± 300000 M⁻¹ s⁻¹. In addition, the “L2B ΔIRES % (ligand-induced current enhancement from L2)” value in assay [2] (−60 mV, 150 mM NaCl, 15 mM Tris HCl pH 8.0, 28° C., ligand cis) is reported as “+1.7 ± 1.0%”. Moreover, the “mean duration (toff) of ligand-induced events” value in assay [2] (−60 mV, ligand cis) was found to be 1.8 ± 0.4 s.
As for `NC(=O)C1=CN([C@@H]2O[C@H](COP(=O)(O)OP(=O)(O)OC[C@H]3O[C@@H](n4cnc5c(N)ncnc54)[C@H](OP(=O)(O)O)[C@@H]3O)[C@@H](O)[C@H]2O)C=CC1` [NADPH], the “effect of NADPH on DHFR blockades in presence of MTX” value in assay [3] was “abolished; also recorded: nearly total elimination of the DHFR blockades”. In addition, the “enhancement of residual ionic current on NADPH binding” value in assay [4] (DHFR10+/4+/tag:MTX complexes, −90 mV) is recorded as about 4 pA. Besides, in assay [4] (NADPH trans), the “DHFRtag:MTX blockades with "long" NADPH events” value is reported as about 55% and the “DHFRtag:MTX blockades with "short" NADPH events” value is given as “Approximately 45%”. Also, in assay [4] (−90 mV), the “kon, "long" NADPH events” value came out at 4.8e+06 ± 1.2e+06 M⁻¹ s⁻¹; the “kon, "short" NADPH events” value stood at 5.8e+06 ± 1.2e+06 M⁻¹ s⁻¹; the “ΔIRES %, "long" NADPH events” value was found to be 2.7±0.7%; the “ΔIRES %, "short" NADPH events” value turned out to be 2.2±0.9%. For the same molecule, in assay [4] (−90 mV, NADPH trans), the “lifetime of "long" NADPH binding events” value was over 3 s and the “lifetime of "short" NADPH binding events” value turned out to be 38.5 ± 0.8 ms. Also, the “kon −90 mV” value in assay [4] (−90 mV, pH 7.5, 28° C.) is reported as 4.8 ± 1.2 × 10^6 s^−1 M^−1. In addition, the “L2B ΔIRES % (first NADPH column as printed)” value in assay [4] (−90 mV, pH 7.5, 28° C., ligand trans) is reported as “+2.7 ± 0.7%”. Besides, the “L1B ΔIRES %” value in assay [4] (−90 mV, pH 7.5, 28° C., ligand trans, from L1) was “+2.7±0.7%”. The “L2B ΔIRES %” value in assay [4] (−90 mV, pH 7.5, 28° C., ligand trans, from L2) is “+5.4 ± 1.0%”.

B1: AlkB-Fe^++ (protein, UniProt P05050 1-216, looked up)
Alpha-ketoglutarate-dependent …: MLDLFADAEPWQEPLAAGAVILRRFAFNAAEQLIRDINDVASQSPFRQMVTPGGYTMSVAMTNCGHLGWTTHRQGYLYSPIDPQTNKPWPAMPQSFHNLCQRAATAAGYPDFQPDACLINRYAPGAKLSLHQDKDEPDLRAPIVSVSLGLPAIFQFGGLKRNDPLKRLLLEHGDVVVWGGESRLFYHGIQPLKAGFHPLTIDCRYNLTFRQAGKKE
modifications: Fe2+ bound
Consider B1, for which the “time trapped inside the nanopore” value in assay [5] is “several minutes”. Also, the “AlkB-Fe++ blockades not showing ligand-induced transitions” value in assay [2] is on record as “About 30%”.
